Reference: ChEMBL document CHEMBL1129872, “GENISTEIN AND FLUORINATED ANALOGS SUPPRESS AGONIST-INDUCED AIRWAY SMOOTH MUSCLE CONTRACTION” (Bioorg Med Chem Lett, 1997)

Assays:
Format in all cases: functional
Cavia porcellus [1] = species on record: Cavia porcellus; assay: The -logEC50 value of genistein on ACh-precontracted rings, where EC50 is the concentration causing 50% relaxation
Cavia porcellus [2] = species on record: Cavia porcellus; assay: The inhibitory activity is expressed as percentage of the maximal contraction induced by Ach 3 mM at 3*10e-4 M
Cavia porcellus [3] = species on record: Cavia porcellus; assay: The inhibitory activity is expressed as percentage of the maximal contraction induced by 30 mM KCl dependent on extracellular Ca+2 influx at 10e-4 M
Cavia porcellus [4] = species on record: Cavia porcellus; assay: The inhibitory activity is expressed as percentage of the maximal contraction induced by 30 mM KCl dependent on extracellular Ca+2 influx at 10e-5 M
Cavia porcellus [5] = species on record: Cavia porcellus; assay: The inhibitory activity is expressed as percentage of the maximal contraction induced by KCl
Cavia porcellus [6] = species on record: Cavia porcellus; assay: The inhibitory activity is expressed as percentage of the maximal contraction induced by histamine

Row | Compound | EC50 (Cavia porcellus [1]) [µM] | Max effect (Cavia porcellus [2]) | Max effect (Cavia porcellus [3]) | Max effect (Cavia porcellus [4]) | Max effect (Cavia porcellus [5]) | Max effect (Cavia porcellus [6])
1 | Cn1c(=O)c2[nH]cnc2n(C)c1=O [AMINOPHYLLINE] | 525 |  |  |  |  | 
2 | O=c1c(-c2ccc(F)c(F)c2)coc2cc(O)cc(O)c12 |  | 33 |  |  |  | 
3 | O=c1c(-c2ccc(O)cc2)coc2cc(O)cc(O)c12 [GENISTEIN] | 195 | 66 | 79 | 35 | 88 | 98
4 | CC(C)(C)NCC(O)c1ccc(O)c(CO)c1 (configuration not stated) [ALBUTEROL] | 0.0759 |  |  |  |  | 
5 | O=c1c(-c2ccc(F)cc2)coc2cc(O)cc(O)c12 |  | 26 | 36 |  | 71 | 69
6 | O=c1c(-c2ccc(F)cc2F)coc2cc(O)cc(O)c12 |  | 36 | 41 |  | 78 | 73
